The record followed here is PubChem BioAssay AID743477 (Broad Institute, 2014).

The structures appear in SMILES notation. Several values for one entry are separate records, joined by “and”; a condition that tells them apart may be missing. Equal entries are not always repeated.

The test deals with TC71 Ewing sarcoma viability, CellTiter-Glo ATP, 72 h. The experiment in a line: TC71 Ewing sarcoma cell viability loss – luminescence, retest at dose, dry powder, confirmation (AID 743477).
For `Cc1ccc(S(=O)(=O)N2CC[C@@H]3[C@@H](CO)Nc4ccc(-c5ccc(C#N)cc5)cc4[C@@H]32)cc1`, the AC35 was 18600 nM.

As to `COc1ccc(-c2ccc3c(c2)[C@H]2[C@H](CCN2S(=O)(=O)c2ccc(OC)cc2)[C@@H](CO)N3)cc1`, the AC35 is 3720 nM.

As to `CC[C@@]1(O)C(=O)OCc2c1cc1n(c2=O)Cc2cc3c(CN(C)C)c(O)ccc3nc2-1`, the AC35 was 29 nM.

Turning to `CN(C)c1ccc2c(c1)OC(N)=C(C#N)C2c1cccc(F)c1` (configuration not stated), the AC35 was 21.4 nM.

On to `CN1c2ccc(-c3ccc(C#N)cc3)cc2[C@H]2[C@H](CCN2S(=O)(=O)c2cccc(F)c2)[C@H]1CO`, for which the AC35 is 3760 nM.

Turning to `CC1(C)CC(c2nc(-c3ccc4ccc(-c5ccccc5)nc4c3)c3c(N)nccn23)C1`, the AC35 was 4500 nM.

For the compound `N#Cc1ccc(-c2ccc3c(c2)[C@H]2[C@H](CCN2S(=O)(=O)c2ccccc2F)[C@@H](CO)N3)cc1`, the AC35 is 11000 nM.

For the compound `Cc1nc(Nc2ncc(C(=O)Nc3c(C)cccc3Cl)s2)cc(N2CCN(CCO)CC2)n1`, the AC35 is 26800 nM.

Consider `CC(C)N1c2ccccc2C(c2ccc(F)cc2)C1/C=C/C(O)CC(O)CC(=O)O` (configuration not stated), for which the AC35 was 2590 nM.

As to `CC[C@]1(O)CC2CN(CCc3c([nH]c4ccccc34)[C@@](C(=O)OC)(c3cc4c(cc3OC)N(C=O)[C@H]3[C@@](O)(C(=O)OC)[C@H](OC(C)=O)[C@]5(CC)C=CCN6CC[C@]43[C@@H]65)C2)C1` (some centres not stated), the AC35 is under 1.5 nM.

In the case of `N#CC1=C(N)Oc2ccc3ccccc3c2C1c1cccc(F)c1` (configuration not stated), the AC35 was 677 nM.

On to `Cc1ccccc1C1C(C#N)=C(N)Oc2cc(N)ccc21` (configuration not stated), for which the AC35 was 13200 nM.

Take `Clc1ccccc1-c1nnc2n1N=C(c1ccc3c(c1)OCO3)CS2`: the AC35 is 411 nM.

On to `O=C(Cc1ccc(-c2ccc(OCCN3CCOCC3)cc2)cn1)NCc1ccccc1`, for which the AC35 is under 23.5 nM.

Regarding `CCCCc1ccc2nc(NC(=O)OC)[nH]c2c1`, the AC35 is under 50 nM.

`Cc1cc(Nc2cc(N3CCN(C)CC3)nc(Sc3ccc(NC(=O)C4CC4)cc3)n2)n[nH]1`: the AC35 was 2150 nM.

Regarding `Nc1ncnc2c1c(-c1cccc(OCc3ccccc3)c1)cn2C1CC(CN2CCCC2)C1` (configuration not stated), the AC35 is 10500 nM.

For the compound `O=C(c1cc(Cc2n[nH]c(=O)c3ccccc23)ccc1F)N1CCN(C(=O)C2CC2)CC1`, the AC35 was 2300 nM.

`COc1cc(C2C(C#N)=C(N)Oc3cc(N(C)C)ccc32)cc2c1OCO2` (configuration not stated): the AC35 was 132 nM.

As to `COc1ccc(OC)c(-c2nnc3n2N=C(c2ccc(OC)c(OC)c2)CS3)c1`, the AC35 was 27.6 nM and 22.6 nM.

On to `Cc1ccc([N+](=O)[O-])cc1S(=O)(=O)N(C)C`, for which the AC35 was 7950 nM.

On to `C=C([C@@H](O)[C@@H](C)O)[C@@H](OC)[C@]1(C)Cc2cc3cc(O[C@H]4CC(OC5CC(O)C(O)C(C)O5)C(O)C(C)O4)cc(O)c3c(O)c2C(=O)[C@H]1OC1CC(OC2CC(OC3CC(C)(O)C(O)C(C)O3)C(O)C(C)O2)C(O)C(C)O1` (some centres not stated), for which the AC35 was 55.8 nM.

Regarding `COc1ccc(S(=O)(=O)N2CC[C@@H]3[C@H](CO)Nc4ccc(-c5ccc(C#N)cc5)cc4[C@@H]32)cc1`, the AC35 was 7920 nM.

For the compound `COc1ccc(C2=Nn3c(nnc3-c3ccccc3F)SC2)cc1OC`, the AC35 was 3340 nM.

As for `COc1ccccc1-c1nnc2n1N=C(c1ccc3c(c1)OCO3)CS2`, the AC35 is 20.7 nM.

For `COc1ccc(S(=O)(=O)N2CC[C@@H]3[C@@H](CO)Nc4ccc(-c5ccc(C#N)cc5)cc4[C@@H]32)cc1`, the AC35 was 3780 nM.

For `COc1ccc(C(=O)CC2(O)C(=O)Nc3c(Cl)ccc(Cl)c32)cc1` (configuration not stated), the AC35 is 2930 nM.

With `CCC(C)C(=O)OC1CC(C)C=C2C=CC(C)C(CCC(O)CC(O)CC(=O)O)C21` (configuration not stated), the AC35 is 45300 nM.

For `N#CC1=C(N)Oc2cc(OC(=O)c3ccccc3)ccc2C1c1cccc(Br)c1` (configuration not stated), the AC35 is 3080 nM.

Take `CCOC(=O)CCNc1cc(N2CCc3ccccc3CC2)nc(-c2ccccn2)n1`: the AC35 is 2590 nM.

On to `N#CC1=C(N)Oc2cc3c(cc2C1c1cccc(Br)c1)OCO3` (configuration not stated), for which the AC35 was 49.7 nM.

As for `CC(C)(O)CCc1ccc(O)c2c(=O)c3c(O)c4c(cc3oc12)O[C@H]1OC=C[C@@]41O`, the AC35 was under 26 nM.
